pIC50: −log10 of the molar value. Values belong to the molecule of their own block, whether it stands above or below them.
Legend:
[1] = test system: murine thymocyte proliferation; test: Thymocyte proliferation co-stimulated by ConA and IL-2 (tritiated thymidine); type: cell-based, Balb/C mice; conditions: ConA and IL-2 co-stimulation
Experimental: (§1) ConA, used to activate CD3, induces T-cell proliferation and differentiation. Thymuses, obtained from normal, female Balb/C mice, were dissociated and plated into 96-well plates at a density of 2 x 10^5 cells/well. ConA (0.25 mg/ml) and IL-2 (15 U/ml) were added to the wells. The cells were incubated for 4 days at 37°C. On day 4, the cells were pulsed with tritiated thymidine and incubated for an additional 4 hours. The amount of tritiated thymidine dye incorporated by the harvested cells was determined in a liquid scintillation counter. Drug doses (shown in figs. 1A and 1B) were added two hours prior to ConA and IL-2 activation.
as §1, with “Thymuses,” for “ConA, used to activate CD3, induces T-cell proliferation and differentiation. Thymuses,”, “37 °C.” for “37°C.”, “Doses” for “Drug doses”, “26A, 26B” for “1A”, “26C)” for “1B)”
In another in vitro protocol, thymocyte proliferation was induced by sub-mitogenic doses of Con A (0.25 µg/ml) and IL-2 (20 ng/ml). Cells were stimulated for 96 hours, prior to addition of ^3H-TdR for 4 hours. The cells were harvested and incorporation of ^3H-TdR was determined.
45 on co-stimulated thymocyte proliferation. In an assay procedure, murine thymocytes were stimulated with ConA and IL-2 with 1 µM compound no. 45 added either 1 hour prior to IL-2 (-1), simultaneous with IL-2 (0) or at various times following IL-2 addition (1-92 hour). At 92 hours the thymocytes were pulsed with ^3H-TdR, harvested and counted by scintillation 4 hours later.

[2] = test system: transformed cells (Ras 3T3) and normal 3T3 cells; test: Cytotoxicity for transformed versus non-transformed cells; type: cell-based; conditions: 1, 10 and 100 µM
Experimental: This example compares cytotoxicity results for inventive compound no. 27 for transformed cells and non-transformed cells. In transformed cells (Ras 3T3) and in normal 3T3 cells, cytotoxicity of compound no. 27 at concentrations of 1, 10 and 100 µM was determined. Figure 18 reports results obtained in this assay. At each of the above concentrations, compound no.

[3] = test system: mixed lymphocyte reaction assay culture; test: Cell percent viability in mixed lymphocyte reaction culture; type: cell-based; conditions: 100 µM, six days of cell culture
Experimental: Cell percent viability in mixed lymphocyte reaction assay culture was determined after six days of cell culture. […] Control cells unexposed to drugs are generally 78 to 85% viable under these culture conditions. In this assay, all inventive compounds were present at 100 µM concentrations, generally well above corresponding IC50 values in this assay (see fig. 2D). […] Compounds nos.

[4] = test system: murine lymph node cell proliferation; test: Lymph node cell proliferation stimulated by antigen; type: cell-based; conditions: Mus musculus
Excerpt: This example illustrates activity of representative inventive compounds nos. 27, 49, 50, 45, 43 or 41 (above) in assays detecting activity in response to cell stimulus. One assay, murine lymph node cell proliferation (stimulated by anitgen) was used to determine inhibitive activity of compound no. 27 on proliferation of the lymph node cells. This in vitro assay is an immune suppressive/autoimmune treatment predictive assay emphasizing cellular or T cell immune response. The assay used murine T cells that proliferate in vitro in response to a soluble protein antigen, used to prime the T cells in vivo. Compound was added to the cells at doses indicated in figures 7 and 8 (showing assay results) two hours prior to activation with […]. Compound no. 27 inhibited T cell proliferation in a dose-response manner. IC50 values for compound no.

[5] = test system: murine thymocyte proliferation; test: Thymocyte proliferation stimulated by Con A and IL-1α; type: cell-based; conditions: Mus musculus, 2 h, added two hours prior to Con A and IL-1α
Experimental: In a first part of this example, compounds nos. 30, 33, 28 and 27 (see above for chemical names and structures) show effective inhibition of murine thymocyte proliferation stimulated by Con A and interleukin 1 alpha (IL-1α). Compounds nos. 30, 33, 28 and 27 were added to cell cultures two hours prior to activation with Con A and IL-1α in a thymocyte co-stimulation procedure akin to that discussed in example 21. […] IC50 values determined for each inventive compound tested are as follow: compound no. […] Background counts in the assay were less than 200 cpm.

[6] = test system: murine splenocyte proliferation; test: Splenocyte (B cell) proliferation stimulated by anti-mu/anti-IgM and IL-4; type: cell-based; conditions: Mus musculus, anti-mu and IL-4 12.5 ng/ml
Experimental: This example illustrates inhibitive effects of compounds nos. 27 and 28 on murine splenocyte proliferation stimulated by anti-mu ([…]) and interleukin-4 (IL-4, 12.5 ng/ml). This in vitro assay, described above, is indicative of immune-suppressive/autoimmune treatment assay emphasizing humoral or B cell immune response. The inventive compound was added to the cells at the doses indicated two hours prior to activation with anti-mu and IL-4. Both compounds nos. 27 and 28 inhibited splenocyte proliferation in a dose-response manner. IC50 values for compounds nos. Background counts were less than 200 cpm.
In figure 57, results shown illustrate that inventive compound no. 45 inhibits B cell proliferation. Murine splenocytes were stimulated with anti-IgM antibodies (10 µg/ml) and murine IL-4 (12.5 ng/ml). Cells were pulsed with ^3HTdR at 44 hours, harvested 4 hours later, and the incorporation of ^3H-TdR was determined by liquid scintillation.

mast cell degranulation = test: Serotonin release assay for inhibition of mast cell degranulation; type: cell-based; conditions: Concentration 50 µM
Excerpt: This assay provides an in vitro model for an allergy and asthma therapeutic product. […]

[7] = test system: proliferative PMBC response to allogeneic stimulation; test: Two-way mixed lymphocyte reaction; type: cell-based
Excerpt: This example illustrates therapeutic potential for various autoimmune and inflammatory diseases of the inventive compounds by comparing potency (inhibitive activity) with cytotoxicity data obtained using the following indicative assay procedures. In a mixed lymphocyte reaction assay of compounds nos. […] Compounds nos. […] 2A and 2B. Both compounds nos. […] 2C.
Compound no. […] Compound no.

CMV promoter activity = test: microbe, parasite or virus in culture; type: cell-based
Excerpt: This example illustrates data of proliferative activity of various inventive compounds for inducing CMV promoter activity. The CMV promoter assay measures gene transcription and translation activity wherein any active compounds will have cytotoxic activity for inhibiting cellular protein synthesis in transformed (adenovirus) cells. Compound no. […]

[8] = Cytotoxicity to stromal cells in the stromal cell/PDGF stimulation assay; type: cell-based; conditions: human, read-out: concentrations with cytotoxic effects
Experimental: In conjunction with the human stromal cell/PDGF stimulation assay, cytotoxicity of the inventive compounds tested to stromal cells was also determined. […] Only compond no.

[9] = test system: PDGF/IL-1 co-stimulation, proliferation; test: PDGF/IL-1 co-stimulation proliferation assay; type: cell-based; conditions: fig. 14
Excerpt: The PDGF/IL-1 assay is useful in measuring in vitro activity, indicative of therapeutic potential for treating or preventing restenosis and reperfusion. Figure 14 reports IC50 bar graph results for a group of inventive compounds nos. 27, 28, 32, 30, 31, 32 and 34. In this predictive, in vitro model, compounds nos.

Saccharomyces cervisiae = test: Yeast growth assay (anti-yeast and anti-fungal activity); type: cell-based; conditions: 100 µM
Experimental: This example illustrates the effects of a reference compound "X", and inventive compounds nos. 29, 30, 31, 32 and 33 (see above for names and structures) on yeast growth (Saccharomyces cervisiae)--using 100 µM concentrations--as compared with yeast activity in the absence of any compound additive (control). This assay measured anti-yeast and anti-fungal activity of the inventive compounds tested.

Human stromal cells = test: Stromal cell proliferation in response to PDGF-BB; type: cell-based; conditions: 50 ng/ml PDGF-BB
Experimental: This assay is useful for predicting therapeutic activity for preventing or treating restenosis, atherosclerosis and coronary artery disease. Human stromal cells were starved in serum-free media for one day and then stimulated with 50 ng/ml PDGF-BB. Inventive compounds, at various concentrations, were added one hour prior to PDGF stimulation. PDGF and tritiated thymidine were added and the cells allowed to incubate for one day, following addition of the PDGF and thymidine. 24 Hours later, the cells were harvested and counted by liquid scintillation counting. Results for compounds nos. Background counts (i.e., starved cells) were approximately 1% of control levels. […] 30, 28, 29, 32 and 31, respectively.

Compound: Cn1cnc2c1c(=O)n(CCCCCCCC(O)CNCc1ccccc1)c(=O)n2C (stereo not shown) [compound no. 27, 1-(8-hydroxy-9-(N-benzyl)aminononyl)-3,7-dimethylxanthine]
inhibition of thymocyte proliferation [1]: the most potent immune-suppressive effects
differential cytotoxicity [2]: more cytotoxic for the cancer cells than normal cells
cytotoxicity (percent viability) [3]: little or no cytotoxicity
pIC50 ([4]; first experiment (fig. 7)): 4.64
pIC50 ([4]; second experiment (fig. 8)): 4.72
pIC50 [5]: > 4.90
pIC50 [6]: 5.48
inhibition at 50 µM (mast cell degranulation; Mast cell): 29%
pIC50 ([7]; Lymphocyte, figs. 2A-2C): 4.40
immune suppression activity ([7]; fig. 2D): did not exhibit significant suppressive activity

pIC50 (CMV promoter activity; transformed (adenovirus) cells): 4.82
Compound: CCCCCCCCCCCNCC(O)CCCCn1c(=O)c2c(ncn2C)n(C)c1=O (stereo not shown) [compound no. 30, 1-(6-Undecylamino-5-hydroxyhexyl)-3,7-dimethylxanthine]
inhibition of thymocyte proliferation [1]: the most potent immune-suppressive effects
pIC50 [5]: 6.03
cytotoxicity, ranking among compounds tested (CMV promoter activity): the most cytotoxic compound tested
MCC [8]: > 900 nM
inhibitive activity [9]: potent inhibitive activity
% Inhibition (mast cell degranulation): too toxic
yeast-growth inhibitive activity (Saccharomyces cervisiae): showed yeast-growth inhibitive activity
pIC50 (Human stromal cells): 6.05

— patent publication EP0719267B1, “SECOND MESSENGER CELL SIGNALING INHIBITORS” (CELL THERAPEUTICS, INC., priority 1993, dated 1994)
